Measurements as given in ChEMBL document CHEMBL4382193, “Discovery of Potent Irreversible Pan-Fibroblast Growth Factor Receptor (FGFR) Inhibitors” (J Med Chem, 2018).
pIC50: −log10 of the molar value.

Legend:
[1] = Cmax in Sprague-Dawley rat at 10 mg/kg, po administered via gavage by HPLC-MS/MS analysis; type: ADME, organism-based; design: dose 10 mg/kg, route oral; settings: in vivo
[2] = Terminal half life in Sprague-Dawley rat at 10 mg/kg, po administered via gavage by HPLC-MS/MS analysis; type: ADME, organism-based; settings: in vivo, read-out: beta t1/2 (converted)
NCI-H1581 = test: cells; settings: Homo sapiens, NCI-H1581, 72 h
Description: Antiproliferative activity against FGFR1 amplified human NCI-H1581 cells after 72 hrs by CCK8 or MTT assay

[3] = Tmax in Sprague-Dawley rat at 10 mg/kg, po administered via gavage by HPLC-MS/MS analysis; type: ADME, organism-based; settings: in vivo
[4] = AUC in Sprague-Dawley rat at 10 mg/kg, po administered via gavage by HPLC-MS/MS analysis; type: ADME, organism-based; settings: in vivo
[5] = target: Fibroblast growth factor receptor 1 (Homo sapiens, UniProt P11362)
Sequence of Fibroblast growth factor receptor 1 (P11362 whole entry): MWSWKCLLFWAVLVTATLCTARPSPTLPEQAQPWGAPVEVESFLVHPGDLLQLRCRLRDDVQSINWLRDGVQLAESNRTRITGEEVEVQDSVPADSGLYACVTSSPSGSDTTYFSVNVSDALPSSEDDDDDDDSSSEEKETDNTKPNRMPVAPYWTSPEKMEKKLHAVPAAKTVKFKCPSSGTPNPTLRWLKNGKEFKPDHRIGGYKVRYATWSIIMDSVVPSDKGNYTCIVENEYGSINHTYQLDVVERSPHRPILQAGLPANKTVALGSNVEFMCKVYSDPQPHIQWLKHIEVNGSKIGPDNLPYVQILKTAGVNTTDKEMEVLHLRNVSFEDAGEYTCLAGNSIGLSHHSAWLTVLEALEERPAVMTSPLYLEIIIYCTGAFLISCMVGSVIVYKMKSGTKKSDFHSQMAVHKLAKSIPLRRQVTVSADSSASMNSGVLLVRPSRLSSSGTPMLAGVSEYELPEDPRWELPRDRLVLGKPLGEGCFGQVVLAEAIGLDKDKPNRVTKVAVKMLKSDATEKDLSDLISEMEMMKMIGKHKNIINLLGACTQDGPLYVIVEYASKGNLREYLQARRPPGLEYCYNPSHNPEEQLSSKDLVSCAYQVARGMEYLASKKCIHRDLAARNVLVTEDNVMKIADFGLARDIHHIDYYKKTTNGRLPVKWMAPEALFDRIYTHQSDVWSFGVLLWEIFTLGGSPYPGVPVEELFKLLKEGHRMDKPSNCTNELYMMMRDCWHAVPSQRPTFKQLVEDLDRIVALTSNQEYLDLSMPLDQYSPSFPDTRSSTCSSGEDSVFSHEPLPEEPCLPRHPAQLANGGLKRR
Description: Inhibition of recombinant FGFR1 (unknown origin) using poly (Glu,Tyr) 4:1 as substrate after 60 mins by ELISA

[6] = target: Fibroblast growth factor receptor 4 (Homo sapiens, UniProt P22455); test: Inhibition of recombinant FGFR4 (unknown origin) using poly (Glu,Tyr) 4:1 as substrate after 60 mins by ELISA
Sequence of Fibroblast growth factor receptor 4 (P22455 whole entry): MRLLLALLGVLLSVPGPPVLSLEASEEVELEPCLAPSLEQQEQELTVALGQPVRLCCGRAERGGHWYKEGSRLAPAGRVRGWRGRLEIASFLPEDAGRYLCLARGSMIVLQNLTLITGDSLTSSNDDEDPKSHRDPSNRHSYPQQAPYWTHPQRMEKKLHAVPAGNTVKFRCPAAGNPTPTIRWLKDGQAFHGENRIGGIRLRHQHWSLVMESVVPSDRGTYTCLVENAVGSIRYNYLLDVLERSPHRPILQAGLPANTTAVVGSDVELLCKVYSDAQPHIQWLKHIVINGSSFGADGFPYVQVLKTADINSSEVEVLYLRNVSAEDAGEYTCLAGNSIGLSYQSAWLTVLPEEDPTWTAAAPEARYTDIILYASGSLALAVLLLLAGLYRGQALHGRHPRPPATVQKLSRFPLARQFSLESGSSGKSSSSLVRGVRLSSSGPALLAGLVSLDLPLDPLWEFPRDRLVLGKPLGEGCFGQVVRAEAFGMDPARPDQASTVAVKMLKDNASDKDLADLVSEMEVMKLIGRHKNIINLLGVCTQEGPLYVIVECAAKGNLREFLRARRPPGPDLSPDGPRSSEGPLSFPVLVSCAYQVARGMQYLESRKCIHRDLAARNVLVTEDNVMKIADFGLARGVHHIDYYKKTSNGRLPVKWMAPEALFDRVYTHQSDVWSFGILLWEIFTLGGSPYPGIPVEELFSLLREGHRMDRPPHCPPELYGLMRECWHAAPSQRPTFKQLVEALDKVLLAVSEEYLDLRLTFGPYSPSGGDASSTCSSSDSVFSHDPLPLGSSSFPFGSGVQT

SMILES	pIC50 (NCI-H1581)	also measured
C=CC(=O)N1CC(n2cc(-c3cc4cc(C)cc(OC)c4s3)c3c(N)ncnc32)C1	> 9.52	Cmax [1]: 0.012 µg/mL; half-life [2]: 2.11 h; Tmax [3]: 1.67 h; AUC [4]: 0.0464 µg·h/mL
COc1cc(C)cc2cc(-c3cn(C4CCN(C(=O)/C=C/CN(C)C)C4)c4ncnc(N)c34)sc12 (stereo unspecified)	> 9.52	–
C=CC(=O)N1CCC(n2cc(-c3cc4cccc(C)c4s3)c3c(N)ncnc32)C1 (stereo unspecified)	> 9.52	–
C=CC(=O)N1CC(n2cc(-c3cc4cccc(OC)c4s3)c3c(N)ncnc32)C1	> 9.52	–
C=CC(=O)N1CC(n2cc(-c3cc4cc(OC)ccc4s3)c3c(N)ncnc32)C1	7.42	–
C=CC(=O)N1CCC(n2cc(-c3cc4cccc(OC)c4s3)c3c(N)ncnc32)C1 (stereo unspecified)	> 9.52	–
C=CC(=O)N1CCC(n2cc(-c3cc4cc(OC)cc(OC)c4s3)c3c(N)ncnc32)C1 (stereo unspecified)	> 9.52	–
C=CS(=O)(=O)N1CC(n2cc(-c3cc4cc(C)cc(OC)c4s3)c3c(N)ncnc32)C1	< 6.00	pIC50 [5]: > 9.52
CCC(=O)N1CCC(n2cc(-c3cc4cc(C)cc(OC)c4s3)c3c(N)ncnc32)C1 (stereo unspecified)	7.30	–
C=CC(=O)N1CCC(n2cc(-c3cc4cc(C)cc(OC)c4s3)c3c(N)ncnc32)CC1	> 9.52	–
C=CC(=O)N1CC(n2cc(-c3cc4ccccc4s3)c3c(N)ncnc32)C1	6.77	–
C=CC(=O)N1CC(n2cc(-c3cc4c(OC)ccc(OC)c4s3)c3c(N)ncnc32)C1	7.80	–
C=CC(=O)N1CCC(n2cc(-c3cc4cc(C)cc(OC)c4s3)c3c(NC)ncnc32)C1 (stereo unspecified)	–	pIC50 [6]: < 7.00; pIC50 [5]: < 7.00
C=CC(=O)NCCn1cc(-c2cc3cc(C)cc(OC)c3s2)c2c(N)ncnc21	6.59	–
C#CC(=O)N1CCC(n2cc(-c3cc4cc(C)cc(OC)c4s3)c3c(N)ncnc32)C1 (stereo unspecified)	< 6.00	–
